{"source": "patent US20100113517A1", "about": "“METHOD FOR THE TREATMENT OF FABRY DISEASE USING PHARMACOLOGICAL CHAPERONES” (AMICUS THERAPEUTICS, INC., priority 2007, published 2010)", "assay": "Phase Ib twice daily oral dose study, pharmacokinetics", "assay_type": "in vivo, healthy volunteers (human)", "settings": "for half-life: read-out: t½ (converted)", "protocol": "Study Design and Duration. […] Subjects were housed in the treatment facility from 14 hours prior to dosing until 24 hours after dosing. Meals were controlled by schedule and subjects remained abulatory for 4 hours post drug administration\nPharmacokinetic Sampling. Blood samples (10 mL each) were collected in blood collection tubes containing EDTA before dosing and at the following times thereafter: 0.25, 0.5, 0.75, 1, 1.5, 2, 3, 4, 5, 6, 7, 8, 9, 10, 11 and 12 hours. Blood samples were cooled in an ice bath and centrifuged under refrigeration as soon as possible. Plasma samples were divided into two aliquots and stored at […] pending assay. At the end of the study, all samples were transferred to MDS Pharma Services Analytical Laboratories (Lincoln) for analysis.\nPharmacokinetic parameters were summarised by treatment group using descriptive statistics (arithmetic means, standard deviations, coefficients of variation, sample size, minimum, maximum and median).", "key": {"[1]": {"settings": "human, plasma, oral, 50 mg, 50 mg bid, Day 1"}, "[2]": {"settings": "human, plasma, oral, 50 mg, 50 mg bid, Day 7"}, "[3]": {"settings": "human, plasma, oral, 150 mg, 150 mg bid, Day 1"}, "[4]": {"settings": "human, plasma, oral, 150 mg, 150 mg bid, Day 7"}}, "note": "“And” between values parts separate entries of the source, which are not always exact repeats. Identical values can stand only once. Like-named read-outs stand apart in the source and are kept apart here."}
{"smiles": "OCC1NCC(O)C(O)C1O", "note": "(stereo not shown) [DGJ, 1-deoxygalactonojirimycin]", "values": [{"measurement": "12 h cumulative renal excretion", "setting": "50 mg bid, Day 1", "result": "16% and 16 ± 6%"}, {"measurement": "12 h cumulative renal excretion", "setting": "50 mg bid, Day 7", "result": "48% and 48 ± 7%"}, {"measurement": "Cmin", "setting": "50 mg bid, Day 7", "result": "0.4 ± 0.03", "unit": "µM"}, {"measurement": "12 h cumulative renal excretion", "setting": "150 mg bid, Day 1", "result": "42% and 42 ± 7%"}, {"measurement": "12 h cumulative renal excretion", "setting": "150 mg bid, Day 7", "result": "60% and 60 ± 5%"}, {"measurement": "Cmin", "setting": "150 mg bid, Day 7", "result": "1.2 ± 0.1", "unit": "µM"}, {"measurement": "time of peak concentrations, on average", "setting": "all dose levels (50 and 150 mg b.i.d.)", "result": "approximately 3 hours"}, {"measurement": "increase of Cmax with dose", "setting": "doses increased from 50 mg to 150 mg", "result": "dose-proportional manner"}, {"measurement": "concentration at 7 day", "setting": "human, plasma, oral, 50 mg b.i.d., Day 7, read-out: Cmin", "result": 0.4, "unit": "µM"}, {"measurement": "Cmax", "setting": "[1]", "result": "2.3 ± 0.3", "unit": "µM"}, {"measurement": "Tmax", "setting": "[1]", "result": "2.9 ± 0.4", "unit": "h"}, {"measurement": "Cmax", "setting": "[2]", "result": "3.9 ± 0.5", "unit": "µM"}, {"measurement": "Tmax", "setting": "[2]", "result": "2.5 ± 0.4", "unit": "h"}, {"measurement": "Cmax", "setting": "[3]", "result": "11.3 ± 1.5", "unit": "µM"}, {"measurement": "Tmax", "setting": "[3]", "result": "3.1 ± 0.4", "unit": "h"}, {"measurement": "Cmax", "setting": "[4]", "result": "10.8 ± 1.4", "unit": "µM"}, {"measurement": "Tmax", "setting": "[4]", "result": "2.9 ± 0.4", "unit": "h"}, {"measurement": "half-life", "setting": "human, plasma, oral, 50 mg bid, Day 1", "result": 2.5, "unit": "h"}, {"measurement": "half-life", "setting": "human, plasma, oral, 150 mg bid, Day 1", "result": 2.4, "unit": "h"}]}
